Results taken from patent US20050059627A1, “CRF2 ligands in combination therapy” (priority 2000, published 2005).
d = 2'-deoxy (DNA); m = 2'-O-methyl

Experiments:
CRF2 receptors = assay: CRF2 receptor autoradiography: 125I-sauvagine binding in lateral septum of treated rats; type: in vivo, rat
Procedure: Rats were sacrificed by exposure to CO2. Brains were removed and frozen in methylbutane cooled on dry ice before storage at −80° C. Twenty μm sections through the lateral septum were cut on a cryostat(Kopf Instruments) for receptor autoradiography.
After warming to room temperature for 1 hour, brain sections were preincubated for 5 minutes in 50 mM Tris-HCL (pH 7.5) containing 10 mM MgCl2, 2 mM EGTA (ethylene glycol-bis(β-aminoethyl ether)N,N,N′,N′-tetraacetic acid), 0.1% ovalbumin, 0.08 TIU aprotinin and 0.1 mM bacitracin. Total binding was defined using 0.15 nM ^125I-sauvagine (New England Nuclear). CRF2 specific binding was determined in the presence of 1 μM SC-241, a CRF1 selective receptor antagonist (D. H. Rominger et alJ. Pharmacol. Exp. Therap., 286, 459-468, 1998). Non-specific binding was determined using 1 μM a-helical CRF (American Peptide). Incubations were performed in preincubation buffer containing radioligand and appropriate antagonists for 150 minutes. Tissue sections were then washed twice for 5 minutes each, in PBS containing 0.01% Triton X-100. After a final water rinse, excess water was aspirated and the sections were air-dried overnight. The sections and ^125I standard strips (Amersham) were exposed to Hyperfilm μ-Max (Amersham) for 72 hours.
Quantitation of CRF2 specific binding was performed using the NIH ImageMG 1.44 program. Optical density readings were converted to nCi of ligand bound per mg of protein tissue using ^125I standard strips. Between 7 to 9 adjacent sections were quantitated per rat.

rats [1] = assay: Freezing assay of anxiety (shock box); type: in vivo, rat
Procedure: CRF2 antisense oligonucleotides were administered intracerebroventricularly to target the lateral septum, a brain region containing high levels of CRF2 receptor and mRNA. The lateral septum is part of the limbic brain region known for its involvement in modulating fear and emotion. Rats treated with saline, antisense and mismatch-control oligonucleotides were tested in two different behavioral models of anxiety. Rodents display a characteristic freezing behavior when experiencing fear and anxiety. In the freezing model of anxiety, such behavior is induced by exposure to brief electrical foot-shocks. […] Administration of anxiolytic drugs such as benzodiazepines and selective serotonin reuptake inhibitors reduces the duration of freezing when previously shocked animals are returned to the shock box. In the antisense experiments, dosing of oligonucleotides began after two consecutive days of foot-shock treatment. Two hours following the last oligonucleotide administration on day 8 of dosing, rats were returned to the shock box and observed for 10 minutes. In this part of the experiment, which examines the effect of the pharmacological agent on conditioned fears, the antisense oligonucleotide, but not its mismatch control, reduced the duration of freezing by 50% (FIG. 3a). […] Furthermore, a robust suppression of CRF2 receptors produced important functional consequences that may not be apparent at lower levels of CRF2 receptor inhibition.
The shock box consisted of a black Plexiglas chamber with walls and cover. The doors of the box were constructed of clear Plexiglas over which one-way mirrors were attached for observation. The floor of the box contained a Coulbourn stainless steel shock grid with the bars of the grid spaced 1 cm apart. On the 8th day following surgical implantation of the guide cannulae, rats were placed in the box and allowed to habituate for 2 minutes. A total of 3 scrambled, randomized non-escapable foot-shocks (1.0 mA, 1 second duration) were then delivered at 20 second intervals to the grid floor. […]

rats [2] = assay: Elevated plus maze assay; type: in vivo, rat; settings: dosed 8 days, tested 2 hours after last injection; FIG. 4a
Source text: The elevated plus maze (EPM) is widely used for the determination of anxiolytic or anxiogenic drug effects. The apparatus consists of a +-shaped maze, elevated 50 cm above the floor. Two opposing arms are open and exposed to the environment while the other two arms are enclosed with black Plexiglas sides. In rodents, exposure to the EPM produces an approach/avoidance conflict which generally causes the animal to spend most of its time in the closed arms of the maze.
In the antisense experiment, rats were dosed for 8 days and then tested in the EPM 2 hours after the last oligonucleotide injection. […] Such behavior is indicative of a reduced state of anxiety. […] Binding of ^125I-sauvagine to CRF2 receptors in the lateral septum was reduced by 60% by the antisense oligonucleotide in this experiment (FIG. 4b).
Oligonucleotide treatment of rats was begun on the 8th day following surgery. Rats were tested in the EPM 2 hours following dosing on the 8th day of treatment. At the start of the test, the rat was placed in the center square of the maze and its exploratory behavior during the ensuing 10 minutes was recorded by video-camera. An observer situated outside the test room scored the time spent in the open and closed arms, as well as the number of entries into each arm of the maze. The rats were euthanitized immediately following the conclusion of the test.

CRF2 receptor mRNA = assay: Quantitative in situ hybridization of CRF2 receptor mRNA; type: in vivo, rodent; settings: 9 days dosing
Source text: The absence of functional changes resulting from small antisense inhibitory effects often leads to non-interpretable results. This is due to the uncertainty of whether the experiment produced truly negative results or whether the antisense inhibition was insufficient to reveal a functional change. In addition to the antisense sequence, the magnitude of antisense inhibitory effects is influenced by the duration of antisense treatment and its relation to the half-life of the targeted protein. While the half-life of the CRF2 receptor is unknown, half-lives of other 7-transmembrane receptors in rodent brain (of which the CRF2 receptor is a member) are on the order of 2-3 days. Maximal inhibitory effects are typically seen after antisense treatment for at least 3 protein half-lives. While CRF2 antisense administration for 5 days produced a 40-50% inhibition of the receptor, increasing the duration of dosing to 9 days led to a 70-80% inhibitory effect on receptor binding. […] Therefore, in contrast to Heinrichs et al. whose CRF2 antisense oligonucleotide produced only a 15-20% CRF2 receptor reduction concomitant with significant weight loss in the treated animals, we have optimized antisense reagents for the study of CRF2 receptor function.

| Sequence | inhibition of the receptor (CRF2 receptors; administration for 5 days) | CRF2 receptor binding (CRF2 receptors; combination study, saline/methocel control 1.20±0.05) | inhibitory effect on receptor binding (CRF2 receptors; dosing for 9 days) | reduction of binding of 125I-sauvagine to CRF2 receptors in the lateral septum (CRF2 receptors; rats of the elevated plus maze experiment, FIG. 4b) | reduction in 125I-sauvagine binding to CRF2 receptors (CRF2 receptors; septal brain region of rats of the freezing assay, FIG. 3b) | reduction in the duration of freezing (rats [1]; after two brief foot-shocks, additional 10 minutes, vs saline or mismatch, FIG. 3a) | freezing in the conditioned anxiety test (rats [1]; combination study: antisense icv 7 days, DPC904 oral, FIG. 7b) | reduction of duration of freezing (rats [1]; conditioned fear, icv, return to shock box, first 10 minutes, FIG. 3a) | time in the open arms of the maze (rats [2]) | decrease in CRF2 receptor mRNA (CRF2 receptor mRNA) | decrease in receptor binding (CRF2 receptors; 9 days dosing) |
| --- | --- | --- | --- | --- | --- | --- | --- | --- | --- | --- | --- |
| TGA CGC agc ggc acC AGA CC (TGACGCAGCGGCACCAGACC; sugars from the 5' end m6 d8 m6, linkages o6 s8 o5 (s phosphorothioate, o phosphodiester), methylation of C not given here) [antisense oligonucleotide] | 40-50% | 0.51±0.08 nCi/mg | 70-80% | 60% | 70% | 50% | significant reductions in freezing | 50% | significantly more time in the open, exposed arms | comparable decreases | – |
| TGA GGC acc gga acC ACA CC (TGAGGCACCGGAACCACACC; sugars from the 5' end m6 d8 m6, linkages o6 s8 o5 (s phosphorothioate, o phosphodiester), methylation of C not given here) [Mismatch oligonucleotide, 4-base mismatch control of the antisense oligonucleotide, same chimeric chemistry, reference compound] | – | – | – | – | – | – | – | – | not statistically different from saline-treated rats | minimal decreases | minimal decreases |
